In patent publication US9573913B2, “Cathepsin cysteine protease inhibitors” (Merck Sharp & Dohme Corp., priority 2013, dated 2017):

How the values were obtained:
human cathepsin F = target: T1, human cathepsin F (Homo sapiens, UniProt Q9UBX1); test: Cathepsin F assay (hCat F); format: biochemical; conditions: Z-Phe-Arg-AMC substrate, pH 5.5, 15 min preincubation; read-out: hCat F (IP (nM))
T1 sequence (Q9UBX1 271-484): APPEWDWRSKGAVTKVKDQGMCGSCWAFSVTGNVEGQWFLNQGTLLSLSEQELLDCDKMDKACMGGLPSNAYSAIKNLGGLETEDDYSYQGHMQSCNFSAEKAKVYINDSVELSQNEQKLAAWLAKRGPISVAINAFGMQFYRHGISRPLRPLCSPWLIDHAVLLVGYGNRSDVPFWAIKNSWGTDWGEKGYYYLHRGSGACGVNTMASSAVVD
Outline: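 Enzyme (10 nM) was preincubated 15 min at room temperature with compounds (1/3 DMSO dilution series, 500–0.025 μM) in 50 mM MES pH 5.5, 2.5 mM EDTA, 2.5 mM DTT, 10% DMSO. Z-Phe-Arg-AMC (8 μM) was added and AMC fluorescence (Ex 360/Em 460 nm) followed for 20 min. % inhibition was fitted to dose-response curves.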

human cathepsin K = human cathepsin K (UniProt P43236); test: Cathepsin K Assay (hrbCat K); format: biochemical; conditions: Z-Leu-Arg-AMC substrate, pH 5.5, 15 min preincubation; read-out: hrbCat K (IP (nM))
Outline: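 Human cathepsin K (0.4 nM) was preincubated 15 min at room temperature with compound in 50 mM MES pH 5.5, 2.5 mM EDTA, 2.5 mM DTT and 10% DMSO. Inhibition was fitted to a dose-response model.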

Row | SMILES | IC50 (human cathepsin F) [nM] | IC50 (human cathepsin K) [nM]
1 | CC(Oc1ncccc1-c1nc([C@@H]2CCCC[C@H]2C(=O)NC2(C#N)CC2)c(-c2ccc(N3CCS(=O)(=O)CC3)cc2)s1)C(F)(F)F (mixture of isomers) [Example 134, (1R,2R)-N-(1-cyanocyclopropyl)-2-(5-(4-(1,1-dioxidothiomorpho-lino)phenyl)-2-(2-(((S and R)-1,1,1-trifluoropropan-2-yl)oxy)pyridin-3-yl)thiazol-4-yl)cyclohexane-carboxamide] | 3330 | 2.8
2 | N#CC1(NC(=O)[C@@H]2CCCC[C@H]2c2nc(-c3cnc(C(F)(F)F)nc3)sc2-c2ccc(N3CCS(=O)(=O)CC3)cc2)CC1 [Example 98, (1R,2R)-N-(1-cyanocyclopropyl)-2-(5-(4-(1,1-dioxidothiomorpho-lino)phenyl)-2-(2-(trifluoromethyl)pyrimidin-5-yl)thiazol-4-yl)cyclohexane-carboxamide] | 1600 | 0.6
3 | Cc1nc(C2CCCCC2C(=O)NCC#N)c(-c2ccc(C(=O)N3CCOCC3)cc2)s1 (racemic) [Example 246, N-(cyanomethyl)-2-(2-methyl-5-(4-(morpholine-4-carbonyl)phenyl)thi-azol-4-yl)cyclohexane-carboxamide] | > 10000 | 38.2
4 | N#CC1(NC(=O)[C@@H]2CCCC[C@H]2c2nc(Nc3ccc(F)cc3F)sc2-c2ccc(N3CCS(=O)(=O)CC3)cc2)CC1 [Example 181, (1R,2R)-N-(1-cyanocyclopropyl)-2-(2-((2,4-difluorophenyl)amino)-5-(4-(1,1-dioxidothiomorpho-lino)phenyl)thiazol-4-yl)cyclohexane-carboxamide] | 3490 | 31.9
5 | CC(Oc1ccc(-c2nc([C@@H]3CCCC[C@H]3C(=O)NC3(C#N)CC3)c(-c3ccc(N4CCS(=O)(=O)CC4)cc3)s2)cn1)C(F)(F)F (mixture of isomers) [Example 137, (1R,2R)-N-(1-cyanocyclopropyl)-2-(5-(4-(1,1-dioxidothiomorpho-lino)phenyl)-2-(6-(((S and R)-1,1,1-trifluoropropan-2-yl)oxy)pyridin-3-yl)thiazol-4-yl)cyclohexane-carboxamide] | 3330 | 1.2
6 | COc1ccc(-c2nc([C@@H]3CC[C@H](F)C[C@H]3C(=O)NC3(C#N)CC3)c(-c3ccc(N4CCS(=O)(=O)CC4)cc3)s2)nc1 [Example 114, (1R,2R,5S)-N-(1-cyanocyclopropyl)-2-(5-(4-(1,1-dioxidothiomorpho-lino)phenyl)-2-(5-methoxypyridin-2-yl)thiazol-4-yl)-5-fluorocyclohexane-carboxamide] | 1000 | 1.1
7 | COc1cnc(-c2nc([C@@H]3CCCC[C@H]3C(=O)NC3(C#N)CC3)c(-c3ccc(N4CCS(=O)(=O)CC4)cc3)s2)nc1 [Example 81, (1R,2R)-N-(1-cyanocyclopropyl)-2-(5-(4-(1,1-dioxidothiomorpho-lino)phenyl)-2-(5-methoxypyrimidin-2-yl)thiazol-4-yl)cyclohexane-carboxamide] | ≥ 10000 | 48.4
8 | N#CC1(NC(=O)[C@@H]2CCCC[C@H]2c2nc(Nc3ccccc3)sc2-c2ccc(N3CCS(=O)(=O)CC3)cc2)CC1 [Example 179, (1R,2R)-N-(1-cyanocyclopropyl)-2-(5-(4-(1,1-dioxidothiomorpho-lino)phenyl)-2-(phenylamino)thia-zol-4-yl)cyclohexane-carboxamide] | 3740 | 34.6
9 | Cc1nc([C@H]2CCCC[C@@H]2C(=O)NCC#N)c(-c2ccc(C(=O)N3CCOCC3)cc2)s1 [Example 248, (1S,2S)-N-(cyanomethyl)-2-(2-methyl-5-(4-(morpholine-4-carbonyl)phenyl)thiazol-4-yl)cyclohexanecarboxamide] | ≥ 10000 | 6600
10 | CC(C)S(=O)(=O)c1ccc(-c2sc(-c3cncc(F)c3)nc2[C@@H]2CCCC[C@H]2C(=O)NC2(C#N)CC2)cc1 [Example 199, (1R,2R)-N-(1-cyanocyclopropyl)-2-(2-(5-fluoropyridin-3-yl)-5-(4-(isopropylsulfonyl)phenyl)thiazol-4-yl)cyclohexane-carboxamide] | 846 | 25.8
11 | N#CC1(NC(=O)[C@@H]2CCCC[C@H]2c2nc(-c3cncc(F)c3)sc2-c2ccc(N3CCS(=O)(=O)C4(CC4)C3)cc2)CC1 [Example 74, (1R,2R)-N-(1-cyanocyclopropyl)-2-(5-(4-(4,4-dioxido-4-thia-7-azaspiro[2.5]octan-7-yl)phenyl)-2-(5-fluoropyridin-3-yl)thiazol-4-yl)cyclohexane-carboxamide] | 1370 | 1.9
12 | COc1cccc(-c2nc([C@@H]3CCCC[C@H]3C(=O)NC3(C#N)CC3)c(-c3ccc(N4CCS(=O)(=O)CC4)cc3)s2)c1 [Example 56, (1R,2R)-N-(1-cyanocyclopropyl)-2-(5-(4-(1,1-dioxidothiomorpho-lino)phenyl)-2-(3-methoxyphenyl)thi-azol-4-yl)cyclohexane-carboxamide] | 821 | 1.8
13 | Cc1nccc(-c2nc([C@@H]3CCCC[C@H]3C(=O)NC3(C#N)CC3)c(-c3ccc(N4CCS(=O)(=O)CC4)cc3)s2)n1 [Example 119, (1R,2R)-N-(1-cyanocyclopropyl)-2-(5-(4-(1,1-dioxidothiomorpho-lino)phenyl)-2-(2-methylpyrimidin-4-yl)thiazol-4-yl)cyclohexane-carboxamide] | 1200 | 1.3
14 | C[C@@H](C#N)NC(=O)[C@@H]1CCCC[C@H]1c1nc(C(O)C(F)(F)F)sc1-c1ccc(N2CCS(=O)(=O)CC2)cc1 (mixture of isomers) [Example 229, (1R,2R)-N-((S)-1-cyanoethyl)-2-(5-(4-(1,1-dioxidothiomorpho-lino)phenyl)-2-((R and S)-2,2,2-trifluoro-1-hydroxyethyl)thia-zol-4-yl)cyclohexane-carboxamide] | 757 | 2.6
15 | N#CC1(NC(=O)[C@@H]2CCCC[C@H]2c2nc(-c3ncccn3)sc2-c2ccc(N3CCS(=O)(=O)CC3)cc2)CC1 [Example 70, (1R,2R)-N-(1-cyanocyclopropyl)-2-(5-(4-(1,1-dioxidothiomorpho-lino)phenyl)-2-(pyrimidin-2-yl)thiazol-4-yl)cyclohexane-carboxamide] | ≥ 10000 | 27.1
16 | N#CC1(NC(=O)[C@@H]2CCCC[C@H]2c2nc(C3CCOCC3)sc2-c2ccc(N3CCS(=O)(=O)CC3)cc2)CC1 [Example 11, (1R,2R)-N-(1-Cyanocyclopropyl)-2-(5-(4-(1,1-dioxidothiomorpholino)phenyl)-2-(tetrahydro-2H-pyran-4-yl)thiazol-4-yl)cyclohexanecarboxamide] | ≥ 10000 | 3
17 | Cc1nc([C@@H]2CCCC[C@H]2C(=O)NCC#N)c(-c2ccc(N3CCS(=O)(=O)CC3)cc2)s1 [Example 17, (1R,2R)-N-(cyanomethyl)-2-(5-(4-(1,1-dioxidothiomorpho-lino)phenyl)-2-methylthiazol-4-yl)cyclohexane-carboxamide] | 1140 | 2
18 | CN=S1(=O)CCN(c2ccc(-c3sc(-c4ccc(F)cn4)nc3[C@@H]3CCCC[C@H]3C(=O)NC3(C#N)CC3)cc2)CC1 [Example 139, (1R,2R)-N-(1-cyanocyclopropyl)-2-(2-(5-fluoropyridin-2-yl)-5-(4-(1-(methylimino)-1-oxidothiomorpholino)phenyl)thiazol-4-yl)cyclohexane-carboxamide] | 2750 | 3.3
19 | N#CC1(NC(=O)[C@@H]2CCCC[C@H]2c2nc(-c3ccc(F)cn3)sc2-c2ccc(N3CCS(=N)(=O)CC3)cc2)CC1 [Example 136, (1R,2R)-N-(1-cyanocyclopropyl)-2-(2-(5-fluoropyridin-2-yl)-5-(4-(1-imino-1-oxidothiomorpholino)phenyl)thiazol-4-yl)cyclohexane-carboxamide] | 1660 | 1.9
20 | CS(=O)(=O)C1CN(c2ccc(-c3sc(-c4cccnc4)nc3[C@@H]3CCCC[C@H]3C(=O)NC3(C#N)CC3)cc2)C1 [Example 73, (1R,2R)-N-(1-cyanocyclopropyl)-2-(5-(4-(3-(methylsulfonyl)azetidin-1-yl)phenyl)-2-(pyridin-3-yl)thiazol-4-yl)cyclohexane-carboxamide] | 1200 | 2.2
21 | CS(=O)(=O)N1CCN(C(=O)c2ccc(-c3sc(-c4ccc(F)cc4)nc3[C@@H]3CCCC[C@H]3C(=O)NC3(C#N)CC3)cc2)CC1 [Example 33, (1R,2R)-N-(1-cyanocyclopropyl)-2-(2-(4-fluorophenyl)-5-(4-(4-(methylsulfonyl)piperazine-1-carbonyl)phenyl)thi-azol-4-yl)cyclohexane-carboxamide] | 410 | 47
22 | N#CC1(NC(=O)[C@@H]2C[C@@H](F)CC[C@H]2c2nc(-c3ccc(F)cn3)sc2-c2ccc(N3CCS(=N)(=O)CC3)cc2)CC1 [Example 141, (1R,2R,5S)-N-(1-cyanocyclopropyl)-5-fluoro-2-(2-(5-fluoropyridin-2-yl)-5-(4-(1-imino-1-oxidothiomorpholino)phenyl)thiazol-4-yl)cyclohexane-carboxamide] | 1000 | 2.3
